These are literature values, as cited in US4235881A, “Method for producing high potency factor VIII” (priority 1978, dated 1980).

This series concerns Factor VIII. The conditions noted are these: hemophiliacs having diminished ability to synthesize Factor VIII.

“1-Deamino-8-D-Arginine Vasopressin [dDAVP]”: the “ability to synthesize Factor VIII” value was “increased to normal levels”.
